From the NIST ThermoML archive (doi:10.1016/j.tca.2009.07.002)
± gives the expanded uncertainty stated by the source.

Experiment: xn = mol fraction of the nth substance listed
Settings: 101 kPa, Liquid, Vibrating tube method

NC1CCCCC1 [cyclohexylamine] + CCCCO
mass density [kg/m3]
Settings | 288.15 K | 293.15 K | 298.15 K | 303.15 K | 308.15 K | 313.15 K | 318.15 K | 323.15 K
x2 = 0 | 871.29 ± 0.3 | 866.747 ± 0.3 | 862.207 ± 0.3 | 857.671 ± 0.3 | 853.138 ± 0.3 | 848.607 ± 0.3 | 844.073 ± 0.3 | 839.547 ± 0.3
x2 = 0.0499 | 870.402 ± 0.29 | 865.907 ± 0.29 | 861.409 ± 0.29 | 856.914 ± 0.29 | 852.415 ± 0.29 | 847.912 ± 0.29 | 843.406 ± 0.29 | 838.847 ± 0.29
x2 = 0.1019 | 869.284 ± 0.28 | 864.828 ± 0.28 | 860.372 ± 0.28 | 855.914 ± 0.28 | 851.45 ± 0.28 | 846.979 ± 0.28 | 842.499 ± 0.29 | 838.018 ± 0.29
x2 = 0.1499 | 868.221 ± 0.27 | 863.8 ± 0.27 | 859.375 ± 0.28 | 854.945 ± 0.28 | 850.509 ± 0.28 | 846.063 ± 0.28 | 841.605 ± 0.28 | 837.144 ± 0.28
x2 = 0.1997 | 867.037 ± 0.27 | 862.648 ± 0.27 | 858.251 ± 0.27 | 853.85 ± 0.27 | 849.438 ± 0.27 | 845.013 ± 0.27 | 840.578 ± 0.27 | 836.136 ± 0.27
x2 = 0.2995 | 864.139 ± 0.25 | 859.8 ± 0.25 | 855.453 ± 0.25 | 851.095 ± 0.25 | 846.722 ± 0.25 | 842.337 ± 0.25 | 837.935 ± 0.25 | 833.516 ± 0.26
x2 = 0.4 | 860.506 ± 0.23 | 856.206 ± 0.23 | 851.899 ± 0.24 | 847.581 ± 0.24 | 843.244 ± 0.24 | 838.892 ± 0.24 | 834.521 ± 0.24 | 830.136 ± 0.24
x2 = 0.4994 | 855.958 ± 0.22 | 851.708 ± 0.22 | 847.444 ± 0.22 | 843.167 ± 0.22 | 838.874 ± 0.23 | 834.561 ± 0.23 | 830.229 ± 0.23 | 825.872 ± 0.23
x2 = 0.6006 | 850.147 ± 0.21 | 845.964 ± 0.21 | 841.767 ± 0.21 | 837.554 ± 0.21 | 833.322 ± 0.21 | 829.067 ± 0.22 | 824.783 ± 0.22 | 820.478 ± 0.22
x2 = 0.6977 | 843.134 ± 0.2 | 839.036 ± 0.2 | 834.924 ± 0.2 | 830.791 ± 0.2 | 826.637 ± 0.2 | 822.458 ± 0.21 | 818.247 ± 0.21 | 814.01 ± 0.21
x2 = 0.7497 | 838.964 ± 0.2 | 834.921 ± 0.2 | 830.861 ± 0.2 | 826.78 ± 0.2 | 822.671 ± 0.2 | 818.541 ± 0.2 | 814.376 ± 0.2 | 810.181 ± 0.21
x2 = 0.7984 | 834.505 ± 0.19 | 830.511 ± 0.19 | 826.498 ± 0.19 | 822.464 ± 0.2 | 818.404 ± 0.2 | 814.315 ± 0.2 | 810.191 ± 0.2 | 806.034 ± 0.2
x2 = 0.85 | 829.604 ± 0.19 | 825.664 ± 0.19 | 821.703 ± 0.19 | 817.72 ± 0.19 | 813.708 ± 0.19 | 809.66 ± 0.2 | 805.587 ± 0.2 | 801.472 ± 0.2
x2 = 0.8993 | 824.498 ± 0.18 | 820.606 ± 0.19 | 816.697 ± 0.19 | 812.762 ± 0.19 | 808.799 ± 0.19 | 804.804 ± 0.19 | 800.769 ± 0.2 | 796.696 ± 0.2
x2 = 0.9508 | 819.064 ± 0.18 | 815.223 ± 0.18 | 811.359 ± 0.19 | 807.471 ± 0.19 | 803.552 ± 0.19 | 799.601 ± 0.19 | 795.606 ± 0.19 | 791.569 ± 0.19

NC1CCCCC1 [cyclohexylamine] + CCCCCCC
mass density [kg/m3]
Settings | 288.15 K | 293.15 K | 298.15 K | 303.15 K | 308.15 K | 313.15 K | 318.15 K | 323.15 K
x1 = 0.0501 | 694.788 ± 0.23 | 690.573 ± 0.23 | 686.334 ± 0.24 | 682.072 ± 0.24 | 677.784 ± 0.24 | 673.467 ± 0.24 | 669.12 ± 0.24 | 664.739 ± 0.24
x1 = 0.1002 | 701.818 ± 0.23 | 697.601 ± 0.23 | 693.36 ± 0.24 | 689.097 ± 0.24 | 684.805 ± 0.24 | 680.49 ± 0.24 | 676.146 ± 0.24 | 671.776 ± 0.24
x1 = 0.1501 | 709.079 ± 0.23 | 704.855 ± 0.23 | 700.609 ± 0.24 | 696.341 ± 0.24 | 692.046 ± 0.24 | 687.73 ± 0.24 | 683.386 ± 0.24 | 679.015 ± 0.25
x1 = 0.2305 | 721.227 ± 0.24 | 716.988 ± 0.24 | 712.729 ± 0.24 | 708.452 ± 0.24 | 704.15 ± 0.24 | 699.827 ± 0.24 | 695.479 ± 0.25 | 691.106 ± 0.25
x1 = 0.3004 | 732.296 ± 0.24 | 728.038 ± 0.24 | 723.765 ± 0.24 | 719.477 ± 0.24 | 715.17 ± 0.24 | 710.839 ± 0.25 | 706.489 ± 0.25 | 702.117 ± 0.25
x1 = 0.401 | 749.067 ± 0.24 | 744.783 ± 0.24 | 740.484 ± 0.24 | 736.173 ± 0.25 | 731.847 ± 0.25 | 727.504 ± 0.25 | 723.139 ± 0.25 | 718.756 ± 0.25
x1 = 0.4497 | 757.546 ± 0.24 | 753.244 ± 0.25 | 748.933 ± 0.25 | 744.614 ± 0.25 | 740.28 ± 0.25 | 735.927 ± 0.25 | 731.554 ± 0.25 | 727.16 ± 0.25
x1 = 0.5597 | 777.524 ± 0.25 | 773.195 ± 0.25 | 768.854 ± 0.25 | 764.509 ± 0.26 | 760.149 ± 0.26 | 755.773 ± 0.26 | 751.384 ± 0.26 | 746.981 ± 0.26
x1 = 0.6001 | 785.155 ± 0.26 | 780.814 ± 0.26 | 776.463 ± 0.26 | 772.102 ± 0.26 | 767.732 ± 0.26 | 763.352 ± 0.26 | 758.953 ± 0.26 | 754.544 ± 0.26
x1 = 0.6498 | 794.839 ± 0.26 | 790.479 ± 0.26 | 786.113 ± 0.26 | 781.744 ± 0.26 | 777.362 ± 0.26 | 772.968 ± 0.26 | 768.563 ± 0.27 | 764.139 ± 0.27
x1 = 0.6994 | 804.717 ± 0.26 | 800.344 ± 0.26 | 795.962 ± 0.27 | 791.575 ± 0.27 | 787.181 ± 0.27 | 782.776 ± 0.27 | 778.36 ± 0.27 | 773.935 ± 0.27
x1 = 0.7999 | 825.611 ± 0.28 | 821.199 ± 0.28 | 816.783 ± 0.28 | 812.36 ± 0.28 | 807.934 ± 0.28 | 803.499 ± 0.28 | 799.055 ± 0.28 | 794.605 ± 0.28
x1 = 0.8992 | 847.523 ± 0.29 | 843.061 ± 0.29 | 838.598 ± 0.29 | 834.132 ± 0.29 | 829.662 ± 0.29 | 825.189 ± 0.29 | 820.71 ± 0.29 | 816.229 ± 0.29
x1 = 1 | 871.29 ± 0.3 | 866.747 ± 0.3 | 862.207 ± 0.3 | 857.671 ± 0.3 | 853.138 ± 0.3 | 848.607 ± 0.3 | 844.073 ± 0.3 | 839.547 ± 0.3
